Laboratory results: patent US11339171B2, “MDM2 inhibitors” (Gan & Lee Pharmaceuticals, priority 2017, dated 2022)
Where “and” joins values, the source holds several entries; their conditions need not be identical. Equal values may be shown once. Read-outs that look alike come from different tables or passages of the source.

Assays:
[1] = biological target: T1, MDM2 (Homo sapiens, UniProt Q00987); test: Inhibition test of MDM2-P53 (GST-MDM2, Biotin-P53, Anti-GST-Tb, SA-XL665); assay type: binding
T1 construct: made in house
How it was run: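 Compounds, serially diluted 5-fold (twelve concentrations), were shaken for 90 min at 25° C with a mix of GST-MDM2 (4 nM final), Biotin-P53, anti-GST-Tb and SA-XL665. Buffer: 1×PBS, 0.1% BSA, 5 mM DTT, 1 mM AEBSF; signal read on a microplate reader.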

[2] = Pharmacokinetics in ICR mice after intravenous and intragastric administration; assay type: in vivo; details: for MRT last: read-out: MRT(0-t); for MRT inf: read-out: MRT(0-∞); for Vd: read-out: Vz
How it was run: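 Plasma concentration-time data, quantified by LC-MS/MS with a 1 ng/mL lower limit, gave AUC, t1/2, MRT, Cmax, Tmax, bioavailability, Vz and clearance. Overnight-fasted male ICR mice (three per route) received 2 mg/kg intravenously or 5 mg/kg intragastrically.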

[3] = tested on: human osteosarcoma cell line SJSA-1; test: Inhibition of proliferation of human osteosarcoma cell line SJSA-1 (DAPI staining, In Cell Analyzer); details: Homo sapiens, SJSA-1, 72 h, read-out: IC50 (nM), inhibitory activity on proliferation of human osteosarcoma cell line SJSA-1, SJSA-1, incubated 72 h
[4] = ICR mice, IV 2 mg/kg, individual animal, 2 mg/kg
[5] = ICR mice, PO 5 mg/kg, individual animal, 5 mg/kg
[6] = male, ICR, mouse, plasma, iv, 2 mg/kg, ICR mice, IV 2 mg/kg, individual animal
[7] = male, ICR, mouse, plasma, iv, 2 mg/kg, ICR mice, IV 2 mg/kg, mean of 3 animals
[8] = male, ICR, mouse, plasma, po, 5 mg/kg, ICR mice, PO 5 mg/kg, individual animal
[9] = male, ICR, mouse, plasma, po, 5 mg/kg, ICR mice, PO 5 mg/kg, mean of 3 animals

T1 sequence (Q00987 whole entry): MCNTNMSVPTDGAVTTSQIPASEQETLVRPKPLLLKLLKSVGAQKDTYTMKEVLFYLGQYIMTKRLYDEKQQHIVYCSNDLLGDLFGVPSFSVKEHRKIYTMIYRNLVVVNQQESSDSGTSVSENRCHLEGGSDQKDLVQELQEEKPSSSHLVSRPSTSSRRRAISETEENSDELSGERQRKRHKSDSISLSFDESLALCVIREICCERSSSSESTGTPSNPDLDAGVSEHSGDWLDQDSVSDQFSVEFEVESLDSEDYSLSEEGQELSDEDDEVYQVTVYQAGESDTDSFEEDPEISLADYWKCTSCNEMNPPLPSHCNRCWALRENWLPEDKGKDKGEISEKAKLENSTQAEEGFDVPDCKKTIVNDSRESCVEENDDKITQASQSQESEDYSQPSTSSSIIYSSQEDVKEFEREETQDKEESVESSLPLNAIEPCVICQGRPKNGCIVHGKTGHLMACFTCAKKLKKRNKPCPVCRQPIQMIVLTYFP

Question: Which IC50 [1] does the source give for `COc1nc(C2CC2)ncc1-c1nc2c(n1C(C)C)[C@@]1(C(=O)Nc3cc(Cl)ccc31)N(c1cc(Cl)ccc1C)C2=O` [Example S-121, (S)-6-chloro-5′-(5-chloro-2-methylphenyl)-2′-(2-cyclopropyl-4-methoxypyrimidin-5-yl)-3′-isopropyl-3′H-spiro[dihydroindole-3,4′-pyrrolo[3,4-d]imidazole]-2,6′(5′H)-dione] here?
Answer: 3.35 nM

Question: What about the “AUC(0-t)” value [2, 4] of the same compound?
Answer: 26953.62 ng·h/mL and 24572.30 ng·h/mL

Question: What about the “AUC(0-∞)” value [2, 4] of the same compound?
Answer: 27749.72 ng·h/mL and 25488.79 ng·h/mL

Question: What about the CL [2, 4] of the same compound?
Answer: 1.20 mL/min/kg and 1.31 mL/min/kg

Question: What about the Cmax [2, 4] of the same compound?
Answer: 3576.94 ng/mL and 3887.60 ng/mL

Question: And the “MRT(0-t)” value [2, 4]?
Answer: 5.04 h and 5.26 h

Question: And the “MRT(0-∞)” value [2, 4]?
Answer: 5.79 h and 6.22 h

Question: What about the Vz [2, 4] of the same compound?
Answer: 0.53 L/kg and 0.62 L/kg

Question: And the t1/2 [2, 4]?
Answer: 5.09 h and 5.50 h

Question: And the “AUC(0-t)” value [2, 5]?
Answer: 43063.09 ng·h/mL and 40782.54 ng·h/mL

Question: What about the “AUC(0-∞)” value [2, 5] of the same compound?
Answer: 43407.01 ng·h/mL and 41032.91 ng·h/mL

Question: And the Cmax [2, 5]?
Answer: 4835.52 ng/mL and 4714.57 ng/mL

Question: And the “MRT(0-t)” value [2, 5]?
Answer: 5.27 h and 5.40 h

Question: And the “MRT(0-∞)” value [2, 5]?
Answer: 5.45 h and 5.54 h

Question: And the Tmax [2, 5]?
Answer: 4.00 h

Question: What about the t1/2 [2, 5] of the same compound?
Answer: 3.34 h and 3.14 h

Question: What about the AUC(0-inf) [2, 6] of the same compound?
Answer: 29400 ng·h/mL

Question: And the clearance [2, 6]?
Answer: 1.14 mL/min/kg

Question: And the AUC(0-t) ([2]; male, ICR, mouse, plasma, iv, 2 mg/kg, ICR mice, IV 2 mg/kg, individual animal, read-out: AUC(0-t))?
Answer: 28400 ng·h/mL

Question: What about the Cmax ([2]; male, ICR, mouse, plasma, iv, 2 mg/kg, ICR mice, IV 2 mg/kg, individual animal, read-out: Cmax) of the same compound?
Answer: 3350 ng/mL

Question: And the MRT last [2, 6]?
Answer: 5.15 h

Question: What about the MRT inf [2, 6] of the same compound?
Answer: 6.03 h

Question: What about the Tmax ([2]; male, ICR, mouse, plasma, iv, 2 mg/kg, ICR mice, IV 2 mg/kg, individual animal, read-out: Tmax) of the same compound?
Answer: 0.08 h

Question: And the Vd [2, 6]?
Answer: 0.52 L/kg

Question: And the half-life ([2]; male, ICR, mouse, plasma, iv, 2 mg/kg, ICR mice, IV 2 mg/kg, individual animal, read-out: t1/2 (converted))?
Answer: 5.25 h

Question: What about the AUC(0-inf) [2, 7] of the same compound?
Answer: 27500 ng·h/mL

Question: What about the clearance [2, 7] of the same compound?
Answer: 1.21 mL/min/kg

Question: What about the AUC(0-t) ([2]; male, ICR, mouse, plasma, iv, 2 mg/kg, ICR mice, IV 2 mg/kg, mean of 3 animals, read-out: AUC(0-t)) of the same compound?
Answer: 26600 ng·h/mL

Question: And the Cmax ([2]; male, ICR, mouse, plasma, iv, 2 mg/kg, ICR mice, IV 2 mg/kg, mean of 3 animals, read-out: Cmax)?
Answer: 3600 ng/mL

Question: What about the MRT last [2, 7] of the same compound?
Answer: 5.15 h

Question: What about the MRT inf [2, 7] of the same compound?
Answer: 6.01 h

Question: What about the Tmax ([2]; male, ICR, mouse, plasma, iv, 2 mg/kg, ICR mice, IV 2 mg/kg, mean of 3 animals, read-out: Tmax) of the same compound?
Answer: 0.083 h

Question: What about the Vd [2, 7] of the same compound?
Answer: 0.56 L/kg

Question: What about the half-life ([2]; male, ICR, mouse, plasma, iv, 2 mg/kg, ICR mice, IV 2 mg/kg, mean of 3 animals, read-out: t1/2 (converted)) of the same compound?
Answer: 5.28 h

Question: What about the AUC(0-inf) [2, 8] of the same compound?
Answer: 40300 ng·h/mL

Question: What about the AUC(0-t) ([2]; male, ICR, mouse, plasma, po, 5 mg/kg, ICR mice, PO 5 mg/kg, individual animal, read-out: AUC(0-t)) of the same compound?
Answer: 40100 ng·h/mL

Question: And the Cmax ([2]; male, ICR, mouse, plasma, po, 5 mg/kg, ICR mice, PO 5 mg/kg, individual animal, read-out: Cmax)?
Answer: 4920 ng/mL

Question: What about the MRT last [2, 8] of the same compound?
Answer: 4.96 h

Question: What about the MRT inf [2, 8] of the same compound?
Answer: 5.08 h

Question: And the Tmax ([2]; male, ICR, mouse, plasma, po, 5 mg/kg, ICR mice, PO 5 mg/kg, individual animal, read-out: Tmax)?
Answer: 2 h

Question: What about the half-life ([2]; male, ICR, mouse, plasma, po, 5 mg/kg, ICR mice, PO 5 mg/kg, individual animal, read-out: t1/2 (converted)) of the same compound?
Answer: 3.09 h

Question: What about the AUC(0-inf) [2, 9] of the same compound?
Answer: 41600 ng·h/mL

Question: What about the AUC(0-t) ([2]; male, ICR, mouse, plasma, po, 5 mg/kg, ICR mice, PO 5 mg/kg, mean of 3 animals, read-out: AUC(0-t)) of the same compound?
Answer: 41300 ng·h/mL

Question: And the Cmax ([2]; male, ICR, mouse, plasma, po, 5 mg/kg, ICR mice, PO 5 mg/kg, mean of 3 animals, read-out: Cmax)?
Answer: 4820 ng/mL

Question: What about the MRT last [2, 9] of the same compound?
Answer: 5.21 h

Question: And the MRT inf [2, 9]?
Answer: 5.36 h

Question: And the Tmax ([2]; male, ICR, mouse, plasma, po, 5 mg/kg, ICR mice, PO 5 mg/kg, mean of 3 animals, read-out: Tmax)?
Answer: 3.33 h

Question: What about the half-life ([2]; male, ICR, mouse, plasma, po, 5 mg/kg, ICR mice, PO 5 mg/kg, mean of 3 animals, read-out: t1/2 (converted)) of the same compound?
Answer: 3.19 h

Question: And the AUC(0-t) ([2]; male, ICR, mouse, plasma, po, 5 mg/kg, oral intragastric administration 5 mg/kg, read-out: AUC0-t)?
Answer: 41300 ng·h/mL

Question: And the half-life ([2]; male, ICR, mouse, plasma, po, 5 mg/kg, oral intragastric administration 5 mg/kg, read-out: half-life (converted))?
Answer: 3.19 h

Question: And the bioavailability ([2]; male, mouse, plasma, ICR mice, PO 5 mg/kg vs IV 2 mg/kg, from mean values, read-out: F* (bioavailability))?
Answer: 62%

Question: And the IC50 [3]?
Answer: 67 nM
